Data published in US11779566B2 (priority 2016, dated 2023).
In brackets after ≈: the same amount, converted by molar mass.

How the values were obtained:
vaccinia virus (VV) = details: in vitro, read-out: 50% effective concentration [EC50], inhibition of virus replication; cited from earlier work
cowpox virus (CV) = details: in vitro, read-out: 50% effective concentration [EC50], inhibition of virus replication; cited from earlier work
ectromelia virus (ECTV) = details: read-out: 50% effective concentration [EC50], inhibition of virus replication; cited from earlier work
monkeypox = details: in vitro, read-out: 50% effective concentration [EC50], inhibition of virus replication; cited from earlier work
camelpox = details: read-out: 50% effective concentration [EC50], inhibition of virus replication; cited from earlier work
variola viruses = details: in vitro, read-out: 50% effective concentration [EC50], inhibition of virus replication; cited from earlier work
VV [1] = details: lethal infection with VV; treatments delayed up to 72 h post-viral inoculation; cited from earlier work
CV = details: lethal infection with CV; treatments delayed up to 72 h post-viral inoculation; cited from earlier work
VV [2] = details: orally twice a day at 15 or 50 mg/kg of body weight for 5 days; cited from earlier work
physchem = details: aqueous buffer
ECTV = details: mouse, in vivo; cited from earlier work

O=C(NN1C(=O)[C@@H]2[C@@H]3C=C[C@@H]([C@H]4C[C@@H]34)[C@@H]2C1=O)c1ccc(C(F)(F)F)cc1 [ST-246, 4-trifluoromethyl-N-(3,3a,4,4a,5,5a,6,6a-octahydro-1,3-dioxo-4,6-ethenocycloprop[f]isoindol-2-(1H)-yl)-benzamide]
EC50 (vaccinia virus (VV)): ≤ 70 nM
EC50 (cowpox virus (CV)): ≤ 70 nM
EC50 (ectromelia virus (ECTV)): ≤ 70 nM
EC50 (monkeypox): ≤ 70 nM
EC50 (camelpox): ≤ 70 nM
EC50 (variola viruses): ≤ 70 nM
preventing or reducing mortality (VV [1]): highly effective in preventing or reducing mortality
preventing or reducing mortality (CV): highly effective in preventing or reducing mortality
tail lesions (VV [2]): significantly reduced
solubility (physchem): ~2 µg/mL (≈ 5.31 µM)
preventing or reducing mortality (ECTV): highly effective in preventing or reducing mortality
toxicity in animal models (ECTV): nontoxic
